Entries after “also recorded” stand apart in the source; their conditions may differ.
What was measured:
SNAP-mGluR2 = molecular target: T1, SNAP-mGluR2 (Rattus norvegicus, UniProt P31421); test: Photoactivation of SNAP-mGluR2 read out as GIRK current, whole cell patch clamp in HEK293 cells; format: cell-based
T1 construct: expressed in transfected cells; host or cells: HEK293 / HEK 293T, with co-expressed GIRK channel
Description: Whole cell patch clamp recordings from HEK 293T cells were performed 24-48 hours after transfection as previously described (Farrants et al., 2018). Briefly, voltage clamp recordings at −60 mV were performed in a high potassium (120 mM) solution to enable large inward currents upon receptor activation.
Unless otherwise noted, cells were incubated with 1-10 μM of PORTL for 45-60 min at 37° C. in the appropriate extracellular recording solution. Labeling efficiency was determined as previously described (Levitz et al., 2017). Illumination was applied to the entire field of view using a CoolLED pE-4000 through a 40× objective. Light intensity in the sample plane was 1-2 mW/mm^2. pClamp software was used for both data acquisition and control of illumination. All drugs were purchased from Tocris and applied using a gravity-driven perfusion system.
FIG. 3A-3C. Monovalent BGAG12,460 elicits rat SNAP-mGluR2 and human SNAP-mGluR6 GIRK photo-current in HEK293 cells. FIG. 3A. Group II and III mGluRs, like mGluR2 and 6, respectively, couple to GIRK channels in neurons and this system reconstitutes in non-neuronal cell lines, so that SNAP-mGluR2 or 6 coupled to a BGAG photoswitch will be activated by light and induce hyperpolarizing GIRK current. FIG. 3B. Blue (460 nm) light photo-activates BGAG12,460:SNAP-mGluR2 and elicits an inward K+ current from co-expressed GIRK channel in a HEK293 cell voltage clamped at −60 mV with [K+]in=[K+]out=150 mM. FIG. 3C.
FIG. 4A-4D. Multibranched BGAG12,460 increases potency and sensitivity of SNAP-mGluR2 activation of GIRK channels in HEK293 cells. FIG. 4A. ^4×BGAG12,460 consists of a single BG end for 1:1 attachment to SNAP on each subunit of the mGluR and 4 branches of a 12-PEG linker, with each branch bearing a photoswitchable azobenzene-glutamate (AG). FIG. 4B. […] Dependence of SNAP-mGluR2 photo-activation efficiency, read out as GIRK current, with single, 2-branch and 4-branch BGAG12,460. […]

[1] = test system: rd1 mice expressing SNAP-mGluR2 in RGCs; test: Line pattern recognition (learned aversive association, iPad displays), SNAP-mGluR2 in RGCs; format: in vivo, mouse; conditions: for line pattern recognition in moving displays (lines 1 or 6 cm apart): displays moving at 4 or 8 cm/s; for high-acuity line pattern recognition, 0.5 cm wide lines separated by 0.25 or 0.5 cm: in PBS intravitreal
Description: (§1) Modified active avoidance was assayed as previously described^19, using the Coulbourn shuttle box (H10-11M-SC), however, now iPad tablet screens were mounted onto the shuttle cage wall, each displaying one of two images that differed in orientation or distance between two lines but were otherwise of equal shape, size, and light intensity. The aversive image side was paired with a foot shock of 0.7 mA. Upon recall the light patterns were reversed to avoid a bias for location and time spent on each side was recorded. Adaptation was tested by dimming or brightening the display to different intensities.
As shown above, ^4×BGAG12,460:SNAP-mGluR2 in either RGCs or ON-BCs confers high sensitivity light perception. It was asked whether ^4×BGAG12,460:SNAP-mGluR2 would support patterned vision. The ability of treated and untreated rd1 mice to discriminate between two different line patterns in a learned negative association task was tested. The task is carried out in a 2-chamber arena, where the floor in each chamber is conductive and can apply an independent aversive mild foot shock. […] The mouse was trained for two days, during which a mild foot shock was given in one of the chambers. The line pattern associated with the foot shock was assigned randomly initially but then kept consistent for that animal throughout the 2 days of training. […] The chambers were cleaned thoroughly before and after each training or test session to remove olfactory clues. The room was kept dark to avoid room reference visual cues. And the aversive and non-aversive cues were switched between the end of the second day of training and the test day to avoid location bias.
To further assess the restored line pattern recognition, the lines were made thinner and the separation between the lines was reduced.
The kinetics of onset, decay and recovery of the restored light response are expected to affect the ability to recognize a visual pattern. […] Thus, the speed limit of ^4×BGAG12,460:SNAP-mGluR2 in RGCs is ≥8 cm/s, whereas that of medium wave cone opsin in RGCs is ≤4 cm/s.

[2] = test system: rd1 mice expressing SNAP-mGluR2 in ON-BCs; test: Line pattern recognition (learned aversive association, iPad displays), SNAP-mGluR2 in ON-BCs; format: in vivo, mouse; conditions: in PBS, trained and tested within a week after intravitreal injection
Description: as §1
As shown above, ^4×BGAG12,460:SNAP-mGluR2 in either RGCs or ON-BCs confers high sensitivity light perception. It was asked whether ^4×BGAG12,460:SNAP-mGluR2 would support patterned vision. The ability of treated and untreated rd1 mice to discriminate between two different line patterns in a learned negative association task was tested. The task is carried out in a 2-chamber arena, where the floor in each chamber is conductive and can apply an independent aversive mild foot shock. […] The mouse was trained for two days, during which a mild foot shock was given in one of the chambers. The line pattern associated with the foot shock was assigned randomly initially but then kept consistent for that animal throughout the 2 days of training. […]

T1 sequence (P31421 with tags, fused parts or gaps): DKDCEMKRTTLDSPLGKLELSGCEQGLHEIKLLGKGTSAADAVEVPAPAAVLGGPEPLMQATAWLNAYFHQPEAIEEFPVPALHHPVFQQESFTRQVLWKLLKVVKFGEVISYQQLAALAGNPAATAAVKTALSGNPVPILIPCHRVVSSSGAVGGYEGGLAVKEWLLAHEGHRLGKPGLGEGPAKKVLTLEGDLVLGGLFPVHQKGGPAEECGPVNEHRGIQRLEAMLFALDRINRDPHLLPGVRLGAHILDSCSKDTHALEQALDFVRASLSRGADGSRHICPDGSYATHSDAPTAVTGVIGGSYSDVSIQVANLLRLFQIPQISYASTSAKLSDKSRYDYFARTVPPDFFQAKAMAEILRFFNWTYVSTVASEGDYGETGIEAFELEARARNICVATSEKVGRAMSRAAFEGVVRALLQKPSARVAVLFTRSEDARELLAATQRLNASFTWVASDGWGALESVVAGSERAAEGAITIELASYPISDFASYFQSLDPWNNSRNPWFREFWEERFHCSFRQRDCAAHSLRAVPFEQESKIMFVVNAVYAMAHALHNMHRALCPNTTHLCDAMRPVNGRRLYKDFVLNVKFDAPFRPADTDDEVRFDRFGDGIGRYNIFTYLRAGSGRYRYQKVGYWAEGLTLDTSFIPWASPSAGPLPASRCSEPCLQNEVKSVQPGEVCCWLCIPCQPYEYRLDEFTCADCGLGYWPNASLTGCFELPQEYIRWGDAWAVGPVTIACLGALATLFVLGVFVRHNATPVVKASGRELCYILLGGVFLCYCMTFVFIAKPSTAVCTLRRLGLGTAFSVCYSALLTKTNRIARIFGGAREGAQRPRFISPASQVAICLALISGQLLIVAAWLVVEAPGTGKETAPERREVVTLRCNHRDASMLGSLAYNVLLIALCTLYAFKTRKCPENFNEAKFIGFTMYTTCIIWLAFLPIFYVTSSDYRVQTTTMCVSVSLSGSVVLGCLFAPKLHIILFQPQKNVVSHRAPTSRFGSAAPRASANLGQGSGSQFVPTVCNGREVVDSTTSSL

Nc1nc(OCc2ccc(CNC(=O)CCCC(=O)N[C@H](CCC(=O)N[C@H](CCC(=O)NCCOCCOCCOCCOCCOCCOCCOCCOCCOCCOCCOCCOCCC(=O)NCCNc3ccc(/N=N/c4ccc(NC(=O)CCC[C@@H](C[C@H](N)C(=O)O)C(=O)O)cc4)cc3)C(=O)NCCOCCOCCOCCOCCOCCOCCOCCOCCOCCOCCOCCOCCC(=O)NCCNc3ccc(/N=N/c4ccc(NC(=O)CCC[C@@H](C[C@H](N)C(=O)O)C(=O)O)cc4)cc3)C(=O)N[C@H](CCC(=O)NCCOCCOCCOCCOCCOCCOCCOCCOCCOCCOCCOCCOCCC(=O)NCCNc3ccc(/N=N/c4ccc(NC(=O)CCC[C@@H](C[C@H](N)C(=O)O)C(=O)O)cc4)cc3)C(=O)NCCOCCOCCOCCOCCOCCOCCOCCOCCOCCOCCOCCOCCC(=O)NCCNc3ccc(/N=N/c4ccc(NC(=O)CCC[C@@H](C[C@H](N)C(=O)O)C(=O)O)cc4)cc3)cc2)c2nc[nH]c2n1 [^4×BGAG12,460]
visible light photoactivation of SNAP-mGluR2 (SNAP-mGluR2; 460 nm light, GIRK current, HEK293 cells): near-complete photoactivation of mGluR2; also recorded: close to the maximum activation that is achieved with saturating glutamate | increase in sensitivity (shift of mid-point of the intensity-response curve) (SNAP-mGluR2; cultured HEK293 cells, versus BGAG12,460): ~5 fold | speed limit of line pattern recognition in moving displays [1]: ≥ 8 cm/s | line pattern recognition in moving displays (lines 1 or 6 cm apart) [1]: performed as well as wildtype animals when the line displays moved at either 4 or 8 cm/s | line pattern recognition in moving displays (lines 1 or 6 cm apart) ([1]; listed as 4×BGAG): supports line pattern recognition as well as wildtype vision when visual displays move at 8 cm/s | high-acuity line pattern recognition, 0.5 cm wide lines separated by 0.25 or 0.5 cm [1]: enabled the rd1 mice to perform the task and to do so as well as wildtype mice | high-acuity line pattern recognition, 0.5 cm wide lines separated by 0.25 or 0.5 cm ([1]; listed as 4×BGAG): supports line pattern recognition approaching wild-type acuity limit | line pattern recognition, parallel lines spaced 1 versus 6 cm ([1]; in PBS, trained and tested within a week after intravitreal injection): spent more time on the side of the non-aversive visual display | line pattern recognition, parallel lines spaced 1 versus 6 cm [2]: spent also more time on the side of the non-aversive visual display
